Tested on: Crohn's Disease (CD)
Assay: Oral limonene regimen in two patients suffering from Crohn's Disease (case reports, Examples 2 and 3)
Details: for anal bleeding under prior medication regimen: Example 3 subject before limonene, combined regimen of six tablets ASACOL (mesalamine) daily and two 50 mg tablets IMURAN (azathioprine) daily
Method: As used herein, “treatment” shall mean temporary or permanent alleviation or elimination of CD symptoms and/or intestinal damage.
A preferred adult dose of limonene is about 400 to 1,000 milligrams, more preferably 1,000 mg, administered once daily, typically for a period of 10 to 30 days. Other dosing regimens, such as every other day and twice weekly regimens, may be desired, depending upon the patient. In fact, it will be appreciated by those of ordinary skill in the art that the amount of limonene, dosing schedule, and duration of treatment may vary depending upon the individual's age, weight, and severity of the CD.
Upon diagnosis, the patient underwent a partial small bowel surgical resection wherein about one foot of intestine and appendix were surgically removed.
To alleviate the symptoms of CD, the subject was taking the following prescriptions and over-the-counter medications: 1 Cortisone injection every six months; 1 tablet of 2.5 mg diphenoxylate/0.025 mg atropine every 8 hours as needed; twelve tablets (2.0 mg each) of IMODIUM (loperamide) every day as needed.
Prior to treatment with the limonene regimen, the subject discontinued taking their prescription and OTC medications for CD except for one cortisone injection in April 2001 and about 1 to 2 tablets of IMODIUM (lopcramide) per month. They began taking 1000 mg d-limonene (98%) on March 2001. […] The subject then began taking 400 mg of d-limonene once a week for two weeks, followed by 400-mg d-limonene twice a week for three weeks. The subject was then put on a regimen of 1000 mg d-limonene take once a week for three weeks, increasing to 1000 mg twice a week for three weeks. After that series, the subject began taking 1000 mg d-limonene every other day for three weeks. The subject continued to take 1000 mg d-limonene twice a week for maintenance.
A subject diagnosed with CD in November 1999 after undergoing a colonoscopy.
The subject began treatment with the inventive limonene method in January 2001, taking 1000 mg of d-limonene daily. […] For maintenance therapy, the patient continued to take three 1000 mg capsules of d-limonene per week.

Row | Compound | anal bleeding under prior medication regimen | adverse effect on first dosing (Example 2, subject with CD, 1000 mg d-limonene (98%) oral, regimen discontinued immediately) | anal bleeding (Example 2, subject with CD, during treatment, when taking 1000 mg d-limonene) | abdominal pain or cramping (Example 2 subject, during maintenance, 1000 mg d-limonene twice a week) | normal stools per day (Example 2 subject, during maintenance, 1000 mg d-limonene twice a week, about ten stools/day before treatment) [times a day] | anal bleeding (Example 3, subject with CD, about seven days after start of 1000 mg d-limonene daily) | stools per day (Example 3, subject with CD, about seven days after start of 1000 mg d-limonene daily, ten stools/day before)
1 | Nc1ccc(O)c(C(=O)O)c1 [ASACOL, mesalamine, reference compound] | bleeding ceased for about six to eight months, and then reoccurred | – | – | – | – | – | –
2 | Cn1cnc([N+](=O)[O-])c1Sc1ncnc2nc[nH]c12 [IMURAN, azathioprine, reference compound] | bleeding ceased for about six to eight months, and then reoccurred | – | – | – | – | – | –
3 | C=C(C)[C@H]1CC=C(C)CC1 [d-limonene] | – | severe acid reflux | stopped almost immediately | no abdominal pain or cramping | 1 to 2 | no anal bleeding | 1–2 stools per day

Reference: US7041706B2, “Method for treating crohn's disease” (priority 2002, dated 2006)
